The conditions of data set [1]: rcm bond, 12-membered ring.
The conditions of data set [2]: from C=CC[C@H](NC(=O)OC(C)(C)C)c1cc(-c2c(NC(=O)C(C=C)C(C)C)cnn2C)ccn1; rcm bond; 12-membered ring; Grubbs II (40 mol%); DCE; 36.7 mM; 120.0 °C.
Another data set concerns the target factor XIa (Homo sapiens, UniProt P03951). The note with it: value taken from WO 2014/022767, Table 1, page 89; cited from earlier work.
Data set [3] has as its target T1, purified human Factor XIa (Homo sapiens, UniProt P03951).
T1 construct: purchased Haematologic Technologies
In words: Factor XIa inhibition assay, chromogenic substrate S-2366 (Ki). It counts as biochemical. The procedure, abridged: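 Purified human FXIa (25-200 pM final) with S-2366 (0.0002-0.001 M) in 50 mM HEPES pH 7.4, 145 mM NaCl, 5 mM KCl, 0.1% PEG 8000. Velocities of absorbance change measured over 20-180 min with inhibitor present; Ki calculated for competitive inhibition from rates or IC50 via Ki=IC50/(1+S/Km).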

Data set [4] concerns the target T2, purified human plasma kallikrein (Homo sapiens, UniProt P03952).
T2 construct: Plasma prekallikrein is a zymogen of a trypsin-like serine protease; purchased Enzyme Research Laboratories
The experiment in a line: Plasma kallikrein inhibition assay, chromogenic substrate S-2302 (Ki). It counts as biochemical. In a few lines:
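Purified human plasma kallikrein (200 pM final) with chromogenic substrate S-2302 at 0.00008-0.0004 M in 0.1 M sodium phosphate pH 7.5, 0.1-0.2 M NaCl, 0.5% PEG 8000. Velocities measured over 20-180 min with and without inhibitor; Ki derived assuming competitive inhibition, e.g. Ki=IC50/(1+S/Km).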

Counter-ions that a name gives are not always drawn. Like-named read-outs stand apart in the source and are kept apart here.

T2 sequence (P03952 391-638 limits assumed): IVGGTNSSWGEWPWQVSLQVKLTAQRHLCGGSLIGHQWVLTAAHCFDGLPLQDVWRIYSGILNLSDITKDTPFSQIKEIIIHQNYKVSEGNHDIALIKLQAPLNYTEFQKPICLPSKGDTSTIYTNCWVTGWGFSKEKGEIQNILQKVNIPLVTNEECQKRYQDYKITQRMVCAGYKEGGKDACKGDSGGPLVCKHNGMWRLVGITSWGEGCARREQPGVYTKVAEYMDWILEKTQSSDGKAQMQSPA
T2 sequence (P03952 20-390 partner limits assumed): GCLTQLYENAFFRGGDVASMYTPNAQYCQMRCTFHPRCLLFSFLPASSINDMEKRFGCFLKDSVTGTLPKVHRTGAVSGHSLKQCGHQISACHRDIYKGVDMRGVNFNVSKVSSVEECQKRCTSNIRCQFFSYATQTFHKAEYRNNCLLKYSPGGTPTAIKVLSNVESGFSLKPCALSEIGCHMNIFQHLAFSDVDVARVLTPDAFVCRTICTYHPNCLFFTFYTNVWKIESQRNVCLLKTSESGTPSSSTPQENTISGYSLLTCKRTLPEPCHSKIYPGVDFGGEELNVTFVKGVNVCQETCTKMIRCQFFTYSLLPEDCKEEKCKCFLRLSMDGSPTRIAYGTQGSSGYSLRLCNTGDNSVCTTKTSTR
T1 sequence (P03951 388-625 limits assumed): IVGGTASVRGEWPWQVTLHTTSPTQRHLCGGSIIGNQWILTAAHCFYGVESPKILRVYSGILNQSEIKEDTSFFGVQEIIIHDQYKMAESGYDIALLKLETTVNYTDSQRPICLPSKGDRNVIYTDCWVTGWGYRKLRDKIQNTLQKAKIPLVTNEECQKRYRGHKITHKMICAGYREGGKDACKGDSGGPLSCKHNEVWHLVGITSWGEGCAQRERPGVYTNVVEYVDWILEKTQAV
T1 sequence (P03951 19-387 partner limits assumed): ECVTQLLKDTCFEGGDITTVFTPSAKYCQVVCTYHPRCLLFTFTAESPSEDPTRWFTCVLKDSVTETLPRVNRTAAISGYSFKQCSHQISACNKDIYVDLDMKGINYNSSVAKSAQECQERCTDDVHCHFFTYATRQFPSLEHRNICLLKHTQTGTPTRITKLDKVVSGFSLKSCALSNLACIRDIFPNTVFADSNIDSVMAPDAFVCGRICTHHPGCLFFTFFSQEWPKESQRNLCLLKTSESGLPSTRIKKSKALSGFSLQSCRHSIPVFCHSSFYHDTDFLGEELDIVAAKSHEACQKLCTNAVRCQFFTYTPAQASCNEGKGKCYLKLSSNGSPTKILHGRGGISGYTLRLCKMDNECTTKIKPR
factor XIa, sequence (P03951 388-625 limits assumed): as the sequence (P03951 388-625 limits assumed) above
factor XIa, sequence (P03951 19-387 partner limits assumed): as the sequence (P03951 19-387 partner limits assumed) above

`C[C@@H]1/C=C/C[C@H](NC(=O)OCc2ccccc2)c2cc(ccn2)-c2c(cnn2CCOC(C)(C)C)NC1=O` registered a ring closure, isolated yield in data set [1] (from C=CC[C@H](NC(=O)OCc1ccccc1)c1cc(-c2c(NC(=O)[C@H](C)C=C)cnn2CCOC(C)(C)C)ccn1, Grubbs II (40 mol%), DCE, 35.6 mM, 120.0 °C, 0.5 h) of 38%.

In the case of `CC(C)[C@H]1/C=C/C[C@H](NC(=O)OC(C)(C)C)c2cc(ccn2)-c2c(cnn2C)NC1=O`, the ring closure, yield after HPLC in data set [2] was 16.8%.

`C[C@@H]1/C=C/C[C@H](NC(=O)OC(C)(C)C)c2cccc(n2)-c2c(cnn2C)NC1=O` displayed a ring closure, isolated yield in data set [1] (from C=CC[C@H](NC(=O)OC(C)(C)C)c1cccc(-c2c(NC(=O)[C@H](C)C=C)cnn2C)n1, Grubbs II (40 mol%), EtOAc, 13.2 mM, 80.0 °C) of 66%.

A word on the Ki: it is a measure of affinity in units of concentration, obtained from inhibition or displacement. Turning to `C[C@@H]1CCC[C@H](N2CCC(c3c(F)ccc(Cl)c3F)=CC2=O)c2cc(ccn2)-c2cn[nH]c2NC1=O` [Example 221], the inhibition constant Ki on factor XIa is 1320 nM.

In data set [1] (from C=CC[C@H](NC(=O)OC(C)(C)C)c1cc(-c2c(NC(=O)[C@H](C)C=C)cnn2C)ccn1, Grubbs II (40 mol%), DCE, 78.3 mM, 120.0 °C), `C[C@@H]1/C=C/C[C@H](NC(=O)OC(C)(C)C)c2cc(ccn2)-c2c(cnn2C)NC1=O` displayed a ring closure, isolated yield of 20%.

As to `[2H]C([2H])([2H])n1ncc2c1-c1ccnc(c1)[C@@H](N1CCC(c3cc(Cl)ccc3C#N)=CC1=O)CCC[C@@H](C)C(=O)N2` [Example 32, 4-chloro-2-{1-[(9R,13S)-3-(^2H3)methyl-9-methyl-8-oxo-3,4,7,15-tetraazatricyclo[12.3.1.0^2,6]octadeca-1(18),2(6),4,14,16-pentaen-13-yl]-6-oxo-1,2,3,6-tetrahydropyridin-4-yl}benzonitrile], the Ki in data set [3] turned out to be 2.4 nM; in data set [4], 4 nM.

Regarding `C[C@@H]1CCC[C@H](N2CCC(c3cc(Cl)ccc3-n3cc(C(F)(F)F)nn3)=CC2=O)c2cc(ccn2)-c2c(cnn2C)NC1=O` [Example 40, (9R,13S)-13-(4-{5-chloro-2-[4-(trifluoromethyl)-1H-1,2,3-triazol-1-yl]phenyl}-6-oxo-1,2,3,6-tetrahydropyridin-1-yl)-3,9-dimethyl-3,4,7,15-tetraazatricyclo[12.3.1.0^2,6]octadeca-1(18),2(6),4,14,16-pentaen-8-one], the Ki in data set [3] was found to be 0.1 nM; in data set [4], 6 nM.

As to `CC(=O)c1ccc(Cl)c(F)c1C1=CC(=O)N([C@H]2CCC[C@@H](C)C(=O)Nc3cnn(C)c3-c3ccnc2c3)CC1` [Example 46, (9R,13S)-13-[4-(6-acetyl-3-chloro-2-fluorophenyl)-6-oxo-1,2,3,6-tetrahydropyridin-1-yl]-3,9-dimethyl-3,4,7,15-tetraazatricyclo[12.3.1.0^2,6]octadeca-1(18),2(6),4,14,16-pentaen-8-one], the Ki in data set [3] was 3.5 nM; in data set [4], 46 nM.

`C[C@@H]1/C=C/C[C@H](NC(=O)OC(C)(C)C)c2cc(ccn2)-c2c(cnn2C(F)F)NC1=O` registered a ring closure, isolated yield in data set [1] (from C=CC[C@H](NC(=O)OC(C)(C)C)c1cc(-c2c(NC(=O)[C@H](C)C=C)cnn2C(F)F)ccn1, Grubbs II (25 mol%), EtOAc, 5.0 mM) of 76%.

Turning to `C[C@@H]1CCC[C@H](N2CCC(c3c(C(C)(F)F)ccc(Cl)c3F)=CC2=O)c2cc(ccn2)-c2c(cnn2C)NC1=O` [Example 33, (9R,13S)-13-{4-[3-chloro-6-(1,1-difluoroethyl)-2-fluorophenyl]-6-oxo-1,2,3,6-tetrahydropyridin-1-yl}-3,9-dimethyl-3,4,7,15-tetraazatricyclo[12.3.1.0^2,6]octadeca-1(18),2(6),4,14,16-pentaen-8-one], the figures for the inhibition constant (Ki) in data set [3] and in data set [4] were 5.7 nM and 50 nM, respectively.

For `[2H]C([2H])([2H])n1ncc2c1-c1cccc(c1)[C@@H](N1CCC(c3cc(Cl)ccc3-n3cc(Cl)nn3)=CC1=O)CCC[C@@H](C)C(=O)N2` [Example 51, (9R,13S)-13-{4-[5-chloro-2-(4-chloro-1H-1,2,3-triazol-1-yl)phenyl]-6-oxo-1,2,3,6-tetrahydropyridin-1-yl}-3-(^2H3)methyl-9-methyl-3,4,7-triazatricyclo[12.3.1.0^2,6]octadeca-1(18),2(6),4,14,16-pentaen-8-one], the Ki in data set [3] stood at 0.18 nM; in data set [4], 5 nM.

On to `C[C@@H]1CCC[C@H](N2CCC(c3cc(Cl)ccc3Br)=CC2=O)c2cc(ccn2)-c2c(cnn2C)NC1=O` [Example 37, (9R,13S)-13-[4-(2-bromo-5-chlorophenyl)-6-oxo-1,2,3,6-tetrahydropyridin-1-yl]-3,9-dimethyl-3,4,7,15-tetraazatricyclo[12.3.1.0^2,6]octadeca-1(18),2(6),4,14,16-pentaen-8-one], for which the inhibitory constant (Ki) in data set [3] came to 4.7 nM; in data set [4], 16 nM.

In the case of `C[C@@H]1CCC[C@H](N2CCC(c3c(OC(F)F)ccc(Cl)c3F)=CC2=O)c2cc(ccn2)-c2c(cnn2C(F)F)NC1=O` [Example 21, (9R,13S)-13-{4-[3-chloro-6-(difluoromethoxy)-2-fluorophenyl]-6-oxo-1,2,3,6-tetrahydropyridin-1-yl}-3-(difluoromethyl)-9-methyl-3,4,7,15-tetraazatricyclo[12.3.1.0^2,6]octadeca-1(18),2(6),4,14,16-pentaen-8-one], the Ki in data set [3] was 0.69 nM; in data set [4] it was 40 nM.

For `C[C@@H]1CCC[C@H](N2CCC(c3cc(Cl)ccc3-n3cc(Cl)nn3)=CC2=O)c2cc(ccn2)-c2c(cnn2CC(=O)O)NC1=O` [Example 16, 2-[(9R,13S)-13-{4-[5-chloro-2-(4-chloro-1H-1,2,3-triazol-1-yl)phenyl]-6-oxo-1,2,3,6-tetrahydropyridin-1-yl}-9-methyl-8-oxo-3,4,7,15-tetraazatricyclo [12.3.1.0^2,6]octadeca-1(18),2(6),4,14,16-pentaen-3-yl]acetic acid], the Ki in data set [3] was 0.19 nM; in data set [4] it was 17 nM.

As to `C[C@@H]1CCC[C@H](n2ccc(-c3c(OC(F)F)ccc(Cl)c3F)cc2=O)c2cc(ccn2)-c2c(cnn2C)NC1=O` [Example 27, (9R,13S)-13-{4-[3-chloro-6-(difluoromethoxy)-2-fluorophenyl]-2-oxo-1,2-dihydropyridin-1-yl}-3,9-dimethyl-3,4,7,15-tetraazatricyclo[12.3.1.0^2,6]octadeca-1(18),2(6),4,14,16-pentaen-8-one trifluoroacetate], the Ki in data set [3] worked out at 4.9 nM; in data set [4] it was 40 nM.

Regarding `C[C@@H]1CCC[C@H](n2ncc(-c3cc(Cl)ccc3-n3cc(C(F)(F)F)nn3)cc2=O)c2cc(ccn2)-c2c(cnn2C)NC1=O` [Example 61, (9R,13S)-13-(4-{5-chloro-2-[4-(trifluoromethyl)-1H-1,2,3-triazol-1-yl]phenyl}-6-oxo-1,6-dihydropyridazin-1-yl)-3,9-dimethyl-3,4,7,15-tetraazatricyclo[12.3.1.02,6]octadeca-1(18),2(6),4,14,16-pentaen-8-one trifluoroacetate], the Ki in data set [3] was determined as 0.51 nM; in data set [4] it was 66 nM.

Turning to `CC(C)[C@@H]1/C=C/C[C@H](NC(=O)OC(C)(C)C)c2cc(ccn2)-c2c(cnn2C)NC1=O`, the ring closure, yield after HPLC in data set [2] was determined as 16.8%.

As for `C[C@H]1C(=O)Nc2cnn(C)c2-c2ccnc(c2)[C@@H](N2CCC(c3c(C(F)(F)F)ccc(Cl)c3F)=CC2=O)CCC1F` (stereo partly drawn) [Example 20, (9S,13S)-13-{4-[3-chloro-2-fluoro-6-(trifluoromethyl)phenyl]-6-oxo-1,2,3,6-tetrahydropyridin-1-yl}-10-fluoro-3,9-dimethyl-3,4,7,15-tetraazatricyclo[12.3.1.0^2,6]octadeca-1(18),2(6),4,14,16-pentaen-8-one], the Ki in data set [3] amounted to 1.4 nM; in data set [4] it was 40 nM.

For `C[C@@H]1CCC[C@H](N2CCC(c3cc(Cl)ccc3-n3ccnn3)=CC2=O)c2cc(ccn2)-c2c(cnn2CCO)NC1=O` (stereo in doubt) [Example 11, 13-{4-[5-chloro-2-(1H-1,2,3-triazol-1-yl)phenyl]-6-oxo-1,2,3,6-tetrahydropyridin-1-yl}-3-(2-hydroxyethyl)-9-methyl-3,4,7,15-tetraazatricyclo[12.3.1.0^2,6]octadeca-1(18),2(6),4,14,16-pentaen-8-one], the values for the inhibition constant Ki in data set [3] and in data set [4] were 5.5 nM and 140 nM, respectively.

For `C[C@@H]1CCC[C@H](N2CCC(c3cc(Cl)ccc3-n3cc(Cl)nn3)=CC2=O)c2cc(F)cc(c2)-c2c(cnn2C)NC1=O` [Example 59, (9R,13S)-13-{4-[5-chloro-2-(4-chloro-1H-1,2,3-triazol-1-yl)phenyl]-6-oxo-1,2,3,6-tetrahydropyridin-1-yl}-16-fluoro-3,9-dimethyl-3,4,7-triazatricyclo[12.3.1.0^2,6]octadeca-1(18),2(6),4,14,16-pentaen-8-one], the inhibition constant Ki in data set [3] amounted to 0.1 nM; in data set [4], 4 nM.

With `C[C@@H]1CCC[C@H](N2CCC(c3cc(Cl)ccc3-n3ccnn3)=CC2=O)c2cc(ccn2)-c2c(cnn2C2CC2)NC1=O` (stereo in doubt) [Example 5, 13-{4-[5-chloro-2-(1H-1,2,3-triazol-1-yl)phenyl]-6-oxo-1,2,3,6-tetrahydropyridin-1-yl}-3-cyclopropyl-9-methyl-3,4,7,15-tetraazatricyclo [12.3.1.0^2,6]octadeca-1(18),2(6),4,14,16-pentaen-8-one], the values for the Ki in data set [3] and in data set [4] were 1.4 nM and 52 nM, respectively.
